target: T1, GASC1 (Homo sapiens, UniProt Q9H3R0); test: GASC1 demethylation assay on H3K9Me3 peptide (RapidFire HT-MS); assay type: biochemical; conditions: read-out: GASC1 Inhibition
T1 construct: 6×His tagged recombinant GASC1 (N 350aa) was purified from E. Coli BL21(DE3); 6xHis; made in house; host or cells: E. coli BL21(DE3)
T1 sequence (Q9H3R0 1-350 limits assumed): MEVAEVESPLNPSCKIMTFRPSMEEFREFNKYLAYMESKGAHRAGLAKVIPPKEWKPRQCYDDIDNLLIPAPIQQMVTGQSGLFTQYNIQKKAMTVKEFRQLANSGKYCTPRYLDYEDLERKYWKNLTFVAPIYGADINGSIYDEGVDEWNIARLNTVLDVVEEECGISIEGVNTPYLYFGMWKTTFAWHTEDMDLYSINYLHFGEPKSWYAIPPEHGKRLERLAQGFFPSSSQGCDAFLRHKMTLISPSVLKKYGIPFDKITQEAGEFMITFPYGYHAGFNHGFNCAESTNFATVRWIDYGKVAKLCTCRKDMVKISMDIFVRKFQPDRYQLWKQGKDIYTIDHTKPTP
Experimental: 6×His tagged recombinant GASC1 (N 350aa) was purified from E. Coli BL21(DE3) to near homogeneity. The demethylation reaction buffer contained 50 mM TrisCl pH 7.5, 0.01% Triton X-100, 5% glycerol, 1 mM ascorbate (Cat# A4034, Sigma Aldrich), 5 μM α-ketoglutarate (# K2010, Sigma Aldrich) and 20 μM Fe2(NH4)2(SO4)2 (Cat# F1543, Sigma Aldrich). In 25 μL demethylation reaction system, 400 nM recombinant GASC1 and 20 μM H3K9me3 peptide (1-21 aa) were incubated with compounds for 10 minutes, and then α-ketoglutarate and Fe2(NH4)2(SO4)2 were added to initiate the reaction. All of the reactions were incubated for 45 minutes at room temperature, and then 25 μl of 1 N HCl was added to quench the reactions. After termination, plates were sealed and frozen at −80° C. and shipped on dry ice to BioTrove Inc. (Woburn, Mass.) for analysis.
All the reactions were read by RapidFire™ HT-MS platform developed in BioTrove Inc, and the method has been described in detail previously (Assay and Drug Development Technologies, 2004; 2(4): 373-381). Briefly, at BioTrove, plates were thawed and immediately analyzed using RapidFire™ system coupled to a Sciex API4000 triple quadrapole mass spectrometer. The samples were delivered directly from the plate to a clean-up cartridge (BioTrove column A) to remove nonvolatile assay components with 0.1% formic acid in a 3-sec wash cycle. The peptide substrate and demethylated product were coeluted to the mass spectrometer with 80% acetonitrile, 0.1% formic acid. Both the substrate and product signals were read at their +5 charge species, and the conversion from substrate to product is assessed by [H3K9me2 Read]/[H3K9me2 Read+H3K9me3 Read].

IC50 [nM]	Compound
≥ 50000	CCOC(=O)Cc1c(C)[nH]c2c(C#N)c(C)nn2c1=O [Compound I-1]
≥ 50000	CCOC(=O)Cc1c(C)[nH]c2c(C#N)cnn2c1=O [Compound I-2]
1000 to 10000	N#Cc1cnn2c(=O)c3c([nH]c12)CCC3 [Compound I-3]
1000 to 10000	CCc1c(C)[nH]c2c(C#N)c(C)nn2c1=O [Compound I-5]
≥ 50000	Cc1[nH]c2c(C#N)cnn2c(=O)c1Cc1ccccc1 [Compound I-6]
10000 to 50000	Cc1nn2c(=O)c3c([nH]c2c1C#N)CCCC3 [Compound I-12]
≥ 50000	CCc1nn2c(=O)c3c([nH]c2c1C#N)CCCC3 [Compound I-13]
≥ 50000	Cn1c2c(c(=O)n3ncc(C#N)c13)CCCC2 [Compound I-14]
1000 to 10000	Cc1nn2c(=O)c(C(C)C)c(C)[nH]c2c1C#N [Compound I-15]
1000 to 10000	CCCc1c(C)[nH]c2c(C#N)c(C)nn2c1=O [Compound I-16]
≤ 1000	CCCc1c(C)[nH]c2c(C#N)cnn2c1=O [Compound I-17]
≥ 50000	N#Cc1cnn2c(=O)c3c(n(Cc4ccccc4)c12)CCCC3 [Compound I-18]
≥ 50000	N#Cc1cnn2c(=O)c3c(n(-c4ccccc4)c12)CCCC3 [Compound I-19]
1000 to 10000	Cc1c(C(C)C)c(=O)n2ncc(C#N)c2n1-c1ccccc1 [Compound I-20]
1000 to 10000	CCc1c(CO)[nH]c2c(C#N)c(C)nn2c1=O [Compound I-22]
1000 to 10000	CCc1c(COC)[nH]c2c(C#N)c(C)nn2c1=O [Compound I-24]
1000 to 10000	CCOC(=O)c1[nH]c2c(C#N)c(C)nn2c(=O)c1CC [Compound I-26]
≥ 50000	COCCOc1c2c(nc3c(C#N)cnn13)CCCC2 [Compound I-27]
≥ 50000	COCCc1c(C)[nH]c2c(C#N)cnn2c1=O [Compound I-28]
1000 to 10000	CCCc1c(COC)[nH]c2c(C#N)cnn2c1=O [Compound I-31]
1000 to 10000	CCc1c(CCCOC)[nH]c2c(C#N)cnn2c1=O [Compound I-32]

IC50 [nM]	Compound
1000 to 10000	CCCc1c(CO)[nH]c2c(C#N)cnn2c1=O [Compound I-33]
≤ 1000	C=CCc1c(C)[nH]c2c(C#N)cnn2c1=O [Compound I-34]
1000 to 10000	CCc1c(C(C)O)[nH]c2c(C#N)cnn2c1=O (stereo not drawn) [Compound I-35]
≥ 50000	CCc1c(C)n(CCN(C)C)c2c(C#N)cnn2c1=O [Compound I-36]
≥ 50000	CCc1c2n(c3c(C#N)cnn3c1=O)CCC2 [Compound I-37]
≤ 1000	CCc1c(CCCO)[nH]c2c(C#N)cnn2c1=O [Compound I-38]
1000 to 10000	Cc1[nH]c2c(C#N)cnn2c(=O)c1CC(C)C [Compound I-39]
1000 to 10000	Cc1[nH]c2c(C#N)cnn2c(=O)c1CCO [Compound I-40]
≤ 1000	CCc1c(C(F)(F)F)[nH]c2c(C#N)cnn2c1=O [Compound I-41]
≤ 1000	CCc1c(-c2ccoc2)[nH]c2c(C#N)cnn2c1=O [Compound I-42]
1000 to 10000	CCCc1c(C(=O)OCC)[nH]c2c(C#N)cnn2c1=O [Compound I-43]
≤ 1000	CCc1c(Cc2ccccc2)[nH]c2c(C#N)cnn2c1=O [Compound I-44]
≤ 1000	CCOCc1[nH]c2c(C#N)cnn2c(=O)c1CC [Compound I-45]
≤ 1000	C#CCc1c(C)[nH]c2c(C#N)cnn2c1=O [Compound I-46]
≤ 1000	CCc1c(-c2ccccc2)[nH]c2c(C#N)cnn2c1=O [Compound I-47]
1000 to 10000	CCNC(=O)c1[nH]c2c(C#N)cnn2c(=O)c1CC [Compound I-48]
1000 to 10000	C=CCc1c(CO)[nH]c2c(C#N)cnn2c1=O [Compound I-50]
≤ 1000	C=CCc1c(COC)[nH]c2c(C#N)cnn2c1=O [Compound I-51]
1000 to 10000	CCc1c(CNC)[nH]c2c(C#N)cnn2c1=O [Compound I-52]
1000 to 10000	CCc1c(C(=O)OCc2ccccc2)[nH]c2c(C#N)cnn2c1=O [Compound I-53]

target: T2, KDM5A (Homo sapiens, UniProt P29375); test: KDM5 enzyme assay, KDM5A HTRF (Example 463); assay type: biochemical; conditions: not given
T2 construct: Full length KDM5A enzyme was expressed and purified inhouse; made in house
T2 sequence (P29375 whole entry): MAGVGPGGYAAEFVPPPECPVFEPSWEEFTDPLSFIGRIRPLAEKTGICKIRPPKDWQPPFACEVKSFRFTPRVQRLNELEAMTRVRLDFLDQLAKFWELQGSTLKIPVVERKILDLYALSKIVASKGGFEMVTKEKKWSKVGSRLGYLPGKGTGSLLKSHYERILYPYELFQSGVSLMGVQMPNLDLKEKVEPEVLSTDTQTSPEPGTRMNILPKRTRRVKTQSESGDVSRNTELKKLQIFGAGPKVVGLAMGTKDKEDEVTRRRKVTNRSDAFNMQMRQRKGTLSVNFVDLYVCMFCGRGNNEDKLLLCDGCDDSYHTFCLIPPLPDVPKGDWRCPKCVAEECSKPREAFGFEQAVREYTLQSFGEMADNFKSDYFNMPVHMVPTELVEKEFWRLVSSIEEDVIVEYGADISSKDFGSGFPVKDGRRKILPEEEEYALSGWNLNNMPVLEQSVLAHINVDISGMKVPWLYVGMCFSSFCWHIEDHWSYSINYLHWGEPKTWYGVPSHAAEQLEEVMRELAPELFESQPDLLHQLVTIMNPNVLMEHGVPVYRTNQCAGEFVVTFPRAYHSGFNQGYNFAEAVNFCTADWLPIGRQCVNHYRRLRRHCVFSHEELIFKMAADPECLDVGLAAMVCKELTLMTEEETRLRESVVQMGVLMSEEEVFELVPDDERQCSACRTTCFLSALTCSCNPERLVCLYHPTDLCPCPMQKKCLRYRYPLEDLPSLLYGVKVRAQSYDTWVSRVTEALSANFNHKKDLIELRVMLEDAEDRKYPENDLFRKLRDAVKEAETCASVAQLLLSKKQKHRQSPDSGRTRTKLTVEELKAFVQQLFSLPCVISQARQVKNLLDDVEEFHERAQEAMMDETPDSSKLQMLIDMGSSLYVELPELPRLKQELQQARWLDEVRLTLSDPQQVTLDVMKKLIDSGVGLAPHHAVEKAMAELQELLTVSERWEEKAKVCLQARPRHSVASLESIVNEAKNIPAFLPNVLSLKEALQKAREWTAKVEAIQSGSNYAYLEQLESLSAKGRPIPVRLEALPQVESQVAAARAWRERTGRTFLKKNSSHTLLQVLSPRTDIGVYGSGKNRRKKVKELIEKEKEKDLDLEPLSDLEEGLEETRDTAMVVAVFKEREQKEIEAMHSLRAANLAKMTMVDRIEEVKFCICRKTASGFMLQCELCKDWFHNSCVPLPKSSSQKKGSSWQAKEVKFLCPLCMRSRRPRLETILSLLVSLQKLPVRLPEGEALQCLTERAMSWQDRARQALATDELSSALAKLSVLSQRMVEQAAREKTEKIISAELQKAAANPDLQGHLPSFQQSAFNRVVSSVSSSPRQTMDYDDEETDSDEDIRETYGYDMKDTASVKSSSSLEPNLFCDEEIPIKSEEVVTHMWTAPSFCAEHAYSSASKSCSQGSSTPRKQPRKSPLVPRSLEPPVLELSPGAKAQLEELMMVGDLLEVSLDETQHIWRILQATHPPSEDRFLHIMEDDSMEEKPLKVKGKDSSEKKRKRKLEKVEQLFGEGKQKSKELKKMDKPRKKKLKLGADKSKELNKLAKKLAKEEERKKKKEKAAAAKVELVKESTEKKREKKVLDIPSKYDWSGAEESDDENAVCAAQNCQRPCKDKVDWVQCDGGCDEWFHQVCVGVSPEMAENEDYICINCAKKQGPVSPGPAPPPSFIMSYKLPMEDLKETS

Compound	IC50 [nM]
CC(C)c1c(-c2ccc(Cl)cc2)[nH]c2c(C#N)cnn2c1=O [Example 341]	21

same assay, conditions: compounds of Examples 1-432; read-out: Example 463 Assay KDM5A HTRF IC50

IC50 [nM]	Compound
25	CC(C)c1c(-c2cccc(CO)c2)[nH]c2c(C#N)cnn2c1=O [Example 317]
21	CC(C)c1c(-c2cnn(CCNC(=O)OC(C)(C)C)c2)[nH]c2c(C#N)cnn2c1=O [Example 318]
46	CC(C)c1c(-c2cccc(OCCc3ccccc3)c2)[nH]c2c(C#N)cnn2c1=O [Example 319]
20	CC(C)c1c(C2=CCNCC2)[nH]c2c(C#N)cnn2c1=O [Example 320]
23	C=CS(=O)(=O)NCCn1cc(-c2[nH]c3c(C#N)cnn3c(=O)c2C(C)C)cn1 [Example 321]
10	CC(C)c1c(-c2ccc(Nc3ccccc3)cc2)[nH]c2c(C#N)cnn2c1=O [Example 322]
31	Cc1n[nH]cc1-c1[nH]c2c(C#N)cnn2c(=O)c1C(C)C [Example 323]
26	CC(C)c1c(-c2ccc(OCc3ccccc3)cc2)[nH]c2c(C#N)cnn2c1=O [Example 324]
19	CC(C)c1c(-c2cc(F)cc(F)c2)[nH]c2c(C#N)cnn2c1=O [Example 325]
14	CC(C)c1c(-c2cc(F)cc(C(F)(F)F)c2)[nH]c2c(C#N)cnn2c1=O [Example 326]
48	CCS(=O)(=O)c1cccc(-c2[nH]c3c(C#N)cnn3c(=O)c2C(C)C)c1 [Example 327]
30	CC(C)c1c(-c2cccc(OC(F)(F)F)c2)[nH]c2c(C#N)cnn2c1=O [Example 328]
11	CC(C)c1c(-c2cnn(Cc3cncs3)c2)[nH]c2c(C#N)cnn2c1=O [Example 329]
23	Cc1ccc(-c2[nH]c3c(C#N)cnn3c(=O)c2C(C)C)cc1 [Example 330]
27	CC(C)c1c(-c2ccc(C3CC3)cc2)[nH]c2c(C#N)cnn2c1=O [Example 331]
20	CCS(=O)(=O)c1ccc(-c2[nH]c3c(C#N)cnn3c(=O)c2C(C)C)cc1 [Example 332]
12	C=Cc1cccc(Cn2cc(-c3[nH]c4c(C#N)cnn4c(=O)c3C(C)C)cn2)n1 [Example 333]
25	CC(C)c1c(-c2ccc(OCc3ccccc3)nc2)[nH]c2c(C#N)cnn2c1=O [Example 334]
60	CC(C)c1c(C2=CCN(C(=O)OC(C)(C)C)C2)[nH]c2c(C#N)cnn2c1=O [Example 335]
32	CC(C)c1c(-c2cnn(C(CO)c3ccccc3)c2)[nH]c2c(C#N)cnn2c1=O (stereo not drawn) [Example 336]
25	CC(C)c1c(-c2cnn(C(CC#N)c3ccccc3)c2)[nH]c2c(C#N)cnn2c1=O (stereo not drawn) [Example 337]
34	CC(C)c1c(-c2ccc(C3CC3)nc2)[nH]c2c(C#N)cnn2c1=O [Example 338]
33	COc1cc(-c2[nH]c3c(C#N)cnn3c(=O)c2C(C)C)ccc1C#N [Example 339]
31	COc1ccc(-c2[nH]c3c(C#N)cnn3c(=O)c2C(C)C)cc1C(F)(F)F [Example 340]
9	CC(C)c1c(-c2cnn(Cc3ccc(F)c(F)c3)c2)[nH]c2c(C#N)cnn2c1=O [Example 342]
36	Cc1ccc(-c2[nH]c3c(C#N)cnn3c(=O)c2C(C)C)cc1C(F)(F)F [Example 343]
93	CC(C)c1c(-c2ccc(C(=O)N3CCCC3)cc2)[nH]c2c(C#N)cnn2c1=O [Example 344]

Reference: US10035801B2, “Pyrazolo compounds and uses thereof” (CONSTELLATION PHARMACEUTICALS, INC., priority 2013, dated 2018)
